Data taken from US20200187499A1, “SUBSTITUTED BENZYL-4-AMINOPICOLINIC ESTERS AND PYRIMIDINO-4-CARBOXYLIC ESTERS, METHODS FOR THE PRODUCTION THEREOF, AND USE THEREOF AS HERBICIDES AND PLANT GROWTH REGULATORS” (Bayer CropScience Aktiengesellschaft, priority 2017, published 2020).

Legend:
Format in all cases: in vivo
AMARE [1] = assay: Pre-emergence herbicidal action; details: Table 4, pre-emergence (PE), 320 g/ha, scored after 3 weeks
Description: (§1) Seeds of monocotyledonous and dicotyledonous weed plants and crop plants are laid out in sandy loam soil in wood-fiber pots and covered with soil. The compounds of the invention, formulated in the form of wettable powders (WP) or as emulsion concentrates (EC), are then applied to the surface of the covering soil in the form of an aqueous suspension or emulsion at a water application rate equating to 600 to 800 I/ha, with addition of 0.2% wetting agent. After the treatment, the pots are placed in a greenhouse and kept under good growth conditions for the trial plants. The damage to the test plants is scored visually after a test period of 3 weeks by comparison with untreated controls (herbicidal activity in percent (%): 100% activity=the plants have died, 0% activity=like control plants).
(§2) At the same time, inventive compounds leave Gramineae crops such as barley, wheat, rye, millet/sorghum, corn or rice virtually undamaged when applied pre-emergence, even at high active ingredient dosages. In addition, some substances are also harmless to dicotyledonous crops such as soya, cotton, oilseed rape, sugar beet or potatoes. […] The tables below illustrate, in an exemplary manner, the pre-emergence herbicidal action of the compounds according to the invention, the herbicidal activity being stated in percent.

ECHCG = assay: Pre-emergence herbicidal action; details: Table 4, pre-emergence (PE), 320 g/ha, scored after 3 weeks
Description: as §1, §2

ABUTH = assay: Post-emergence herbicidal action; details: 320 g/ha, assessed after about 3 weeks
Experimental: (§3) Seeds of monocotyledonous and dicotyledonous weed and crop plants are laid out in sandy loam soil in wood-fiber pots, covered with soil and cultivated in a greenhouse under good growth conditions. 2 to 3 weeks after sowing, the test plants are treated at the one-leaf stage. The compounds of the invention, formulated in the form of wettable powders (WP) or as emulsion concentrates (EC), are then sprayed onto the green parts of the plants in the form of an aqueous suspension or emulsion at a water application rate equating to 600 to 800 l/ha, with addition of 0.2% wetting agent. After the test plants have been left to stand in the greenhouse under optimal growth conditions for about 3 weeks, the action of the preparations is assessed visually in comparison to untreated controls (herbicidal action in percent (%): 100% activity=the plants have died, 0% activity=like control plants). […] At the same time, inventive compounds leave Gramineae crops such as barley, wheat, rye, millet/sorghum, corn or rice virtually undamaged when applied post-emergence, even at high active ingredient dosages. In addition, some substances are also harmless to dicotyledonous crops such as soya, cotton, oilseed rape, sugar beet or potatoes. Some of the compounds according to the invention have high selectivity and are therefore suitable for controlling unwanted vegetation in agricultural crops by the post-emergence method. The tables below illustrate, in an exemplary manner, the post-emergence herbicidal action of the compounds according to the invention, the herbicidal activity being stated in percent.

AMARE [2] = assay: Post-emergence herbicidal action; details: 320 g/ha, assessed after about 3 weeks
Experimental: as §3

SETVI = assay: Post-emergence herbicidal action; details: Table 6, post-emergence (PO), 320 g/ha, assessed after about 3 weeks
Experimental: as §3

STEME = assay: Post-emergence herbicidal action; details: Table 6, post-emergence (PO), 320 g/ha, assessed after about 3 weeks
Experimental: as §3

| SMILES | Herbicidal action against AMARE (AMARE [1]) [%] | Herbicidal action against ECHCG (ECHCG) [%] | Herbicidal action against ABUTH (ABUTH; Table 9, post-emergence (PO)) [%] | Herbicidal action against AMARE (AMARE [2]; Table 9, post-emergence (PO)) [%] | Herbicidal action against ABUTH (ABUTH; Table 6, post-emergence (PO)) [%] | Herbicidal action against AMARE (AMARE [2]; Table 6, post-emergence (PO)) [%] | Herbicidal action against SETVI (SETVI) [%] | Herbicidal action against STEME (STEME) [%] |
| --- | --- | --- | --- | --- | --- | --- | --- | --- |
| Nc1c(F)c(-c2ccc3ccoc3c2)nc(C(=O)OCc2ccc(Cl)cc2Cl)c1Cl [Example I-51] | 70 | 20 | 80 | 90 | – | – | – | – |
| Nc1c(F)c(-c2cc3ccsc3cc2F)nc(C(=O)OCc2ccc(Cl)cc2)c1Cl [Example I-58] | – | – | 90 | 100 | – | – | – | – |
| Nc1c(F)c(-c2cc3ccoc3cc2F)nc(C(=O)OCc2ccc(F)cc2)c1Cl [Example I-71] | – | – | 40 | 80 | – | – | – | – |
| Nc1cc(-c2ccc3occc3c2)nc(C(=O)OCc2ccc(F)cc2F)c1Cl [Example I-24] | 90 | 60 | – | – | 100 | 100 | 80 | 80 |
| Nc1cc(-c2ccc3ccsc3c2)nc(C(=O)OCc2ccc(F)c(F)c2F)c1Cl [Example I-46] | 100 | 60 | 90 | 100 | – | – | – | – |
| Nc1cc(-c2ccc3occc3c2)nc(C(=O)OCc2cccc(Cl)c2)c1Cl [Example I-38] | – | – | – | – | 100 | 100 | 90 | 100 |
| Nc1c(F)c(-c2ccc3occc3c2)nc(C(=O)OCc2ccc(Cl)cc2Cl)c1Cl [Example I-63] | – | – | 80 | 80 | – | – | – | – |
| COc1c(Cl)ccc(Cl)c1COC(=O)c1nc(-c2ccc3occc3c2)cc(N)c1Cl [Example I-57] | – | – | – | – | 90 | 100 | 80 | 70 |
| Nc1c(F)c(-c2ccc3ncsc3c2)nc(C(=O)OCc2ccc(Cl)cc2)c1Cl [Example I-64] | – | – | – | – | 90 | 90 | 90 | 40 |
| COc1c(F)ccc(COC(=O)c2nc(-c3ccc4ccoc4c3)cc(N)c2Cl)c1F [Example I-28] | 100 | 90 | – | – | 100 | 100 | 100 | 100 |
| Nc1c(F)c(-c2ccc3sccc3c2)nc(C(=O)OCc2c(F)cc(F)cc2F)c1Cl [Example I-59] | 80 | 30 | – | – | 90 | 90 | 80 | 90 |
| Nc1cc(-c2ccc3ccoc3c2F)nc(C(=O)OCc2cccc(Cl)c2)c1Cl [Example I-33] | 90 | 20 | – | – | 90 | 100 | 80 | 90 |
| Nc1c(F)c(-c2cc3ccoc3cc2F)nc(C(=O)OCc2ccc(Cl)cc2)c1Cl [Example I-68] | – | – | 80 | 80 | – | – | – | – |
| Nc1c(F)c(-c2ccc3ccsc3c2)nc(C(=O)OCc2ccc(Cl)cc2)c1Cl [Example I-45] | 100 | 40 | – | – | 90 | 90 | 30 | 90 |
| Nc1c(F)c(-c2ccc3occc3c2)nc(C(=O)OCc2ccc(F)cc2F)c1Cl [Example I-48] | 90 | 10 | – | – | 90 | 90 | 30 | 80 |
| Nc1cc(-c2ccc3ccsc3c2)nc(C(=O)OCc2ccccc2Cl)c1Cl [Example I-44] | 90 | 60 | – | – | 100 | 100 | 60 | 100 |
| Nc1cc(-c2ccc3ccoc3c2)nc(C(=O)OCc2ccc(F)cc2)c1Cl [Example I-26] | 100 | 70 | – | – | 100 | 100 | 100 | 100 |
| Nc1cc(-c2ccc3ccoc3c2)nc(C(=O)OCc2cc(F)c(F)cc2F)c1Cl [Example I-27] | 100 | 60 | – | – | 90 | 100 | 80 | 100 |
| Nc1cc(-c2ccc3ccoc3c2F)nc(C(=O)OCc2ccc(Cl)cc2)c1Cl [Example I-49] | – | – | – | – | 90 | 100 | 80 | 90 |
| Nc1c(F)c(-c2ccc3sccc3c2)nc(C(=O)OCc2ccc(F)cc2F)c1Cl [Example I-56] | 80 | 30 | – | – | 80 | 90 | 80 | 90 |
| Nc1cc(-c2ccc3occc3c2)nc(C(=O)OCc2ccccc2[N+](=O)[O-])c1Cl [Example I-62] | – | – | 100 | 40 | – | – | – | – |
| Nc1cc(-c2ccc3ncsc3c2)nc(C(=O)OCc2ccc(F)cc2F)c1Cl [Example I-39] | – | – | – | – | 100 | 90 | 100 | 70 |
| Nc1cc(-c2ccc3occc3c2)nc(C(=O)OCc2ccccc2C(F)(F)F)c1Cl [Example I-37] | 100 | 90 | – | – | 100 | 100 | 90 | 100 |
| Nc1cc(-c2ccc3ccoc3c2)nc(C(=O)OCc2ccc(F)c(F)c2F)c1Cl [Example I-23] | 100 | 90 | – | – | 90 | 100 | 90 | 100 |
